From ChEMBL document CHEMBL5154849, “Overcoming undesirable hERG affinity by incorporating fluorine atoms: A case of MAO-B inhibitors derived from 1 H-pyrrolo-[3,2-c]quinolines” (Eur J Med Chem, 2022) come the findings set out here.

Structures are written as SMILES.

The data set can be described thus: in vitro. The following applies: rat, liver microsomes.

In turn, `COc1cccc(Cn2ccc3c(N4CCC(F)(F)CC4)nc4ccccc4c32)c1` registered a CLint scaled at 10 µM of 43 mL/min/kg.
